Test results reported in BindingDB's records for doi:10.1016/s0028-3908(05)80009-7 (Universit&Eacute, 1994).
Where a SMILES comes first, the peptide text is derived from it. [ ]: non-standard residue; d: D form. ξ: configuration not given here. Ile(3ξ) = CCC(C)[C@H](N)C(=O)O

Target: T1, Pituitary adenylate cyclase-activating polypeptide (Rattus norvegicus, UniProt P13589)
T1 sequence (P13589 whole entry): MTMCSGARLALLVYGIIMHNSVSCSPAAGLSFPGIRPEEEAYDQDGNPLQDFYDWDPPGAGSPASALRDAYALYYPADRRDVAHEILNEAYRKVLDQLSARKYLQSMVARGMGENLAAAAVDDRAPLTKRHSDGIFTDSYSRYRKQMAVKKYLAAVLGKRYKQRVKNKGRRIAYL

Ki	Compound
0.7 nM	CCC(C)[C@H](NC(=O)CNC(=O)[C@H](CC(=O)O)NC(=O)[C@@H](C)NC(=O)[C@@H](N)Cc1cnc[nH]1)C(=O)N[C@@H](Cc1ccccc1)C(=O)N[C@H](C(=O)N[C@@H](CC(=O)O)C(=O)N[C@@H](CO)C(=O)N[C@@H](Cc1ccc(O)cc1)C(=O)N[C@@H](CO)C(=O)N[C@@H](CCCN=C(N)N)C(=O)N[C@@H](Cc1ccc(O)cc1)C(=O)N[C@@H](CCCN=C(N)N)C(=O)N[C@@H](CCCCN)C(=O)N[C@@H](CCC(N)=O)C(=O)N[C@@H](CCSC)C(=O)N[C@@H](C)C(=O)N[C@H](C(=O)N[C@@H](CCCCN)C(=O)N[C@@H](CCCCN)C(=O)N[C@@H](Cc1ccc(O)cc1)C(=O)N[C@@H](CC(C)C)C(=O)N[C@@H](C)C(=O)N[C@@H](C)C(=O)N[C@H](C(=O)N[C@@H](CC(C)C)C(=O)NCC(=O)N[C@@H](CCCCN)C(=O)N[C@@H](CCCN=C(N)N)C(=O)N[C@@H](Cc1ccc(O)cc1)C(=O)N[C@@H](CCCCN)C(=O)N[C@@H](CCC(N)=O)C(=O)N[C@@H](CCCN=C(N)N)C(=O)N[C@H](C(=O)N[C@@H](CCCCN)C(=O)N[C@@H](CC(N)=O)C(=O)N[C@@H](CCCCN)C(N)=O)C(C)C)C(C)C)C(C)C)[C@@H](C)O (stereo partly specified) [[DAla2]PACAP(1-38)]
500 nM	CC[C@H](C)[C@H](NC(=O)CNC(=O)[C@H](CC(=O)O)NC(=O)[C@@H](CCCN=C(N)N)NC(=O)[C@@H](N)Cc1cnc[nH]1)C(=O)N[C@@H](Cc1ccccc1)C(=O)N[C@H](C(=O)N[C@@H](CC(=O)O)C(=O)N[C@@H](CO)C(=O)N[C@@H](Cc1ccc(O)cc1)C(=O)N[C@@H](CO)C(=O)N[C@@H](CCCN=C(N)N)C(=O)N[C@@H](Cc1ccc(O)cc1)C(=O)N[C@@H](CCCN=C(N)N)C(=O)N[C@@H](CCCCN)C(=O)N[C@@H](CCC(N)=O)C(=O)N[C@@H](CCSC)C(=O)N[C@@H](C)C(=O)N[C@H](C(=O)N[C@@H](CCCCN)C(=O)N[C@@H](CCCCN)C(=O)N[C@@H](Cc1ccc(O)cc1)C(=O)N[C@@H](CC(C)C)C(=O)N[C@@H](C)C(=O)N[C@@H](C)C(=O)N[C@H](C(=O)N[C@@H](CC(C)C)C(N)=O)C(C)C)C(C)C)[C@@H](C)O [[DArg2]PACAP(1-27)]
10 nM	CC[C@H](C)[C@H](NC(=O)CNC(=O)[C@H](CC(=O)O)NC(=O)[C@@H](CCCN=C(N)N)NC(=O)[C@@H](N)Cc1cnc[nH]1)C(=O)N[C@@H](Cc1ccccc1)C(=O)N[C@H](C(=O)N[C@@H](CC(=O)O)C(=O)N[C@@H](CO)C(=O)N[C@@H](Cc1ccc(O)cc1)C(=O)N[C@@H](CO)C(=O)N[C@@H](CCCN=C(N)N)C(=O)N[C@@H](Cc1ccc(O)cc1)C(=O)N[C@@H](CCCN=C(N)N)C(=O)N[C@@H](CCCCN)C(=O)N[C@@H](CCC(N)=O)C(=O)N[C@@H](CCSC)C(=O)N[C@@H](C)C(=O)N[C@H](C(=O)N[C@@H](CCCCN)C(=O)N[C@@H](CCCCN)C(=O)N[C@@H](Cc1ccc(O)cc1)C(=O)N[C@@H](CC(C)C)C(=O)N[C@@H](C)C(=O)N[C@@H](C)C(=O)N[C@H](C(=O)N[C@@H](CC(C)C)C(=O)NCC(=O)N[C@@H](CCCCN)C(=O)N[C@@H](CCCN=C(N)N)C(=O)N[C@@H](Cc1ccc(O)cc1)C(=O)N[C@@H](CCCCN)C(=O)N[C@@H](CCC(N)=O)C(=O)N[C@@H](CCCN=C(N)N)C(=O)N[C@H](C(=O)N[C@@H](CCCCN)C(=O)N[C@@H](CC(N)=O)C(=O)N[C@@H](CCCCN)C(N)=O)C(C)C)C(C)C)C(C)C)[C@@H](C)O [[DArg2]PACAP(1-38)]
600 nM	CC[C@H](C)[C@H](NC(=O)CNC(=O)[C@H](CC(=O)O)NC(=O)[C@H](CO)NC(=O)[C@@H](N)Cc1ccccc1)C(=O)N[C@@H](Cc1ccccc1)C(=O)N[C@H](C(=O)N[C@@H](CC(=O)O)C(=O)N[C@@H](CO)C(=O)N[C@@H](Cc1ccc(O)cc1)C(=O)N[C@@H](CO)C(=O)N[C@@H](CCCN=C(N)N)C(=O)N[C@@H](Cc1ccc(O)cc1)C(=O)N[C@@H](CCCN=C(N)N)C(=O)N[C@@H](CCCCN)C(=O)N[C@@H](CCC(N)=O)C(=O)N[C@@H](CCSC)C(=O)N[C@@H](C)C(=O)N[C@H](C(=O)N[C@@H](CCCCN)C(=O)N[C@@H](CCCCN)C(=O)N[C@@H](Cc1ccc(O)cc1)C(=O)N[C@@H](CC(C)C)C(=O)N[C@@H](C)C(=O)N[C@@H](C)C(=O)N[C@H](C(=O)N[C@@H](CC(C)C)C(N)=O)C(C)C)C(C)C)[C@@H](C)O [[Phe1]PACAP(1-27)]
60 nM	CCC(C)[C@H](NC(=O)CNC(=O)[C@H](CC(=O)O)NC(=O)[C@H](Cc1ccccc1)NC(=O)[C@@H](N)Cc1cnc[nH]1)C(=O)N[C@@H](Cc1ccccc1)C(=O)N[C@H](C(=O)N[C@@H](CC(=O)O)C(=O)N[C@@H](CO)C(=O)N[C@@H](Cc1ccc(O)cc1)C(=O)N[C@@H](CO)C(=O)N[C@@H](CCCN=C(N)N)C(=O)N[C@@H](Cc1ccc(O)cc1)C(=O)N[C@@H](CCCN=C(N)N)C(=O)N[C@@H](CCCCN)C(=O)N[C@@H](CCC(N)=O)C(=O)N[C@@H](CCSC)C(=O)N[C@@H](C)C(=O)N[C@H](C(=O)N[C@@H](CCCCN)C(=O)N[C@@H](CCCCN)C(=O)N[C@@H](Cc1ccc(O)cc1)C(=O)N[C@@H](CC(C)C)C(=O)N[C@@H](C)C(=O)N[C@@H](C)C(=O)N[C@H](C(=O)N[C@@H](CC(C)C)C(N)=O)C(C)C)C(C)C)[C@@H](C)O (stereo partly specified) [[Phe2]PACAP(1-27)]
2 nM	CCC(C)[C@H](NC(=O)CNC(=O)[C@H](CC(=O)O)NC(=O)[C@H](Cc1ccccc1)NC(=O)[C@@H](N)Cc1cnc[nH]1)C(=O)N[C@@H](Cc1ccccc1)C(=O)N[C@H](C(=O)N[C@@H](CC(=O)O)C(=O)N[C@@H](CO)C(=O)N[C@@H](Cc1ccc(O)cc1)C(=O)N[C@@H](CO)C(=O)N[C@@H](CCCN=C(N)N)C(=O)N[C@@H](Cc1ccc(O)cc1)C(=O)N[C@@H](CCCN=C(N)N)C(=O)N[C@@H](CCCCN)C(=O)N[C@@H](CCC(N)=O)C(=O)N[C@@H](CCSC)C(=O)N[C@@H](C)C(=O)N[C@H](C(=O)N[C@@H](CCCCN)C(=O)N[C@@H](CCCCN)C(=O)N[C@@H](Cc1ccc(O)cc1)C(=O)N[C@@H](CC(C)C)C(=O)N[C@@H](C)C(=O)N[C@@H](C)C(=O)N[C@H](C(=O)N[C@@H](CC(C)C)C(=O)NCC(=O)N[C@@H](CCCCN)C(=O)N[C@@H](CCCN=C(N)N)C(=O)N[C@@H](Cc1ccc(O)cc1)C(=O)N[C@@H](CCCCN)C(=O)N[C@@H](CCC(N)=O)C(=O)N[C@@H](CCCN=C(N)N)C(=O)N[C@H](C(=O)N[C@@H](CCCCN)C(=O)N[C@@H](CC(N)=O)C(=O)N[C@@H](CCCCN)C(N)=O)C(C)C)C(C)C)C(C)C)[C@@H](C)O (stereo partly specified) [[Phe2]PACAP(1-38)] (H-HFDG[Ile(3ξ)]FTDSYSRYRKQMAVKKYLAAVLGKRYKQRVKNK-NH2)
30 nM	H-DSYSRYRKQMAVKKYLAAVLGKRYKQRVKNK-NH2 [PACAP(8-38)]
1000 nM	H-FTDSYSRYRKQMAVKKYLAAVL-NH2 [PACAP(5-27)]
300 nM	H-FTDSYSRYRKQMAVKKYLAAVLGKRYKQRV-NH2 [PACAP(6-35)]
6000 nM	H-SRYRKQMAVKKYLAAVL-NH2 [PACAP(11-27)]
100 nM	H-SRYRKQMAVKKYLAAVLGKRYKQRVKNK-NH2 [PACAP(11-38)]
2000 nM	H-SYSRYRKQMAVKKYLAAVL-NH2 [PACAP(9-27)]
30 nM	H-SYSRYRKQMAVKKYLAAVLGKRYKQRVKNK-NH2 [PACAP(9-38)]
3000 nM	H-TDSYSRYRKQMAVKKYLAAVL-NH2 [PACAP(6-27)]
10 nM	H-TDSYSRYRKQMAVKKYLAAVLGKRYKQRVKNK-NH2 [PACAP(7-38)]
90 nM	H-YSRYRKQMAVKKYLAAVLGKRYKQRVKNK-NH2 [PACAP(10-38)]
